Assay results published in patent US20260317324A1, “BIFUNCTIONAL COMPOUNDS FOR DEGRADING BRAF VIA UBIQUITIN PROTEOSOME PATHWAY” (Nurix Therapeutics, Inc., priority 2023, published 2026).

Legend:
Format in all cases: cell-based
BRAF V600E = molecular target: T1, BRAF V600E (Homo sapiens, UniProt P15056, V600E); experiment: BRAF HiBiT degradation assay, C-terminal HiBiT-tagged BRAF V600E A375 cells (clone 1F10), Nano-Glo HiBiT Lytic assay; details: for Dmax: A-375
T1 construct: endogenous C-terminal HiBiT fusion tag on BRAF V600E allele; endogenous in cells; host or cells: A375 clone 1F10 (CRISPR-Cas9 knock-in of the HiBiT tag; parental A375 from ATCC)
T1 sequence (P15056 whole entry V600E, the tested form may be a part): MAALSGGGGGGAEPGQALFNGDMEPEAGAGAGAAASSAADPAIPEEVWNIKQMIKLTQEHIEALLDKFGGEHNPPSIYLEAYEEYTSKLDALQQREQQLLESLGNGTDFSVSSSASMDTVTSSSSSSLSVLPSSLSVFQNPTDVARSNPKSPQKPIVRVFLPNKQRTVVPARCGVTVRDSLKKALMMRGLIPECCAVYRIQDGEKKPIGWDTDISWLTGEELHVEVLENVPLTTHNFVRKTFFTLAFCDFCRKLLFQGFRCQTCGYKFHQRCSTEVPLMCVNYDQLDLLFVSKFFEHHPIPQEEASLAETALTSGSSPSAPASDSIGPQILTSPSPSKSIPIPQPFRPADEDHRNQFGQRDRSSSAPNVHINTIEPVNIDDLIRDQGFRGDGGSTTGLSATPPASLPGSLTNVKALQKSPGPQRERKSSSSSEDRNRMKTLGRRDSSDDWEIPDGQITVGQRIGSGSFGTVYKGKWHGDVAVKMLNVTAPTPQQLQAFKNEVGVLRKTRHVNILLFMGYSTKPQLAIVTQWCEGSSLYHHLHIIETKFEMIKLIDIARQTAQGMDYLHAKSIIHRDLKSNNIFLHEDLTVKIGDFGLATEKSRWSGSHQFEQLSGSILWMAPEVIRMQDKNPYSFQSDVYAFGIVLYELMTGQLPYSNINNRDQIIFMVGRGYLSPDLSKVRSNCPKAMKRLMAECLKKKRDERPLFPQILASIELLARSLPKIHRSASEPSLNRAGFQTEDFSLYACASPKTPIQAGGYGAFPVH
How it was run: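 Luminescence read-out: Nano-Glo HiBiT lytic reagent with LgBiT, 10 min at room temperature. Signal normalised to DMSO-treated tagged cells, with wildtype A375 as background. Cells are endogenously tagged BRAF V600E A375 clone 1F10. Compounds were tested from 1 μM to 0.01 nM; Dmax is observed % degraded at maximal effect.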

BRAF G466V = molecular target: T2, BRAF G466V (Homo sapiens, UniProt P15056, G466V); experiment: BRAF HiBiT degradation assay, C-terminal HiBiT-tagged BRAF G466V overexpressed in HCT-116 BRAF−/− cells (clone 8), Nano-Glo HiBiT Lytic assay
T2 construct: Horizon Discovery (HCT-116 BRAF−/− cells); host or cells: HCT-116 BRAF−/− cells, clone 8, lentiviral transduction
T2 sequence (P15056 whole entry G466V): as the sequence (P15056 whole entry V600E, the tested form may be a part) above, with G466V, E600V counted along it
How it was run: (§1)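 Cells 3,000/well, 24 h at 37 °C; cpds 1 μM–0.01 nM, 11-pt half-log, duplicate, 0.2% DMSO. Readout: HiBiT lytic luminescence, 10 min at RT. Normalized to DMSO-treated tagged cells, with DMSO-treated wild-type HCT-116 as background. DC50 = fitted concentration at Y=50; Obs. Dmax = % degraded at maximal effect.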

BRAF G469A = molecular target: T3, BRAF G469A (Homo sapiens, UniProt P15056, G469A); experiment: BRAF HiBiT degradation assay, C-terminal HiBiT-tagged BRAF G469A overexpressed in HCT-116 BRAF−/− cells (clone 34), Nano-Glo HiBiT Lytic assay
T3 construct: Horizon Discovery (HCT-116 BRAF−/− cells); host or cells: HCT-116 BRAF−/− cells, clone 34, lentiviral transduction
T3 sequence (P15056 whole entry G469A): as the sequence (P15056 whole entry V600E, the tested form may be a part) above, with G469A, E600V counted along it
How it was run: as §1

BRAF D594G = molecular target: T4, BRAF D594G (Homo sapiens, UniProt P15056, D594G); experiment: BRAF HiBiT degradation assay, C-terminal HiBiT-tagged BRAF D594G overexpressed in HCT-116 BRAF−/− cells (clone 63), Nano-Glo HiBiT Lytic assay
T4 construct: Horizon Discovery (HCT-116 BRAF−/− cells); host or cells: HCT-116 BRAF−/− cells, clone 63, lentiviral transduction
T4 sequence (P15056 whole entry D594G): as the sequence (P15056 whole entry V600E, the tested form may be a part) above, with D594G, E600V counted along it
How it was run: as §1

[1] = A375 (BRAF V600E, Class 1), DC50 at 50% degradation
[2] = A375 (BRAF V600E, Class 1), observed Dmax, % protein degraded relative to DMSO control
[3] = BRAF G466V (Class 3), HCT-116 BRAF−/− cells, DC50 at 50% degradation
[4] = BRAF G466V (Class 3), HCT-116 BRAF−/− cells, observed Dmax relative to DMSO control
[5] = BRAF G469A (Class 2), HCT-116 BRAF−/− cells, DC50 at 50% degradation
[6] = BRAF G469A (Class 2), HCT-116 BRAF−/− cells, observed Dmax relative to DMSO control
[7] = BRAF D594G (Class 3), HCT-116 BRAF−/− cells, DC50 at 50% degradation
[8] = BRAF D594G (Class 3), HCT-116 BRAF−/− cells, observed Dmax relative to DMSO control
[9] = A375 (BRAF V600E), DC50 at 50%: fitted conc. at Y=50
[10] = A375 (BRAF V600E), percentage protein degraded at maximal compound effect relative to DMSO
[11] = BRAF G466V, DC50 at 50%: fitted conc. at Y=50
[12] = HCT-116, BRAF G466V, percentage protein degraded at maximal compound effect relative to DMSO
[13] = Class 2, BRAF G469A, DC50 at 50%: fitted conc. at Y=50
[14] = HCT-116, Class 2, BRAF G469A, percentage protein degraded at maximal compound effect relative to DMSO
[15] = BRAF D594G, DC50 at 50%: fitted conc. at Y=50
[16] = HCT-116, BRAF D594G, percentage protein degraded at maximal compound effect relative to DMSO

DC50 (BRAF V600E; [1]) [µM]	Dmax (BRAF V600E; [2]) [%]	DC50 (BRAF G466V; [3]) [µM]	Dmax (BRAF G466V; [4]) [%]	DC50 (BRAF G469A; [5]) [µM]	Dmax (BRAF G469A; [6]) [%]	DC50 (BRAF D594G; [7]) [µM]	Dmax (BRAF D594G; [8]) [%]	DC50 (BRAF V600E; [9]) [µM]	Dmax (BRAF V600E; [10]) [%]	DC50 (BRAF G466V; [11]) [µM]	Dmax (BRAF G466V; [12]) [%]	DC50 (BRAF G469A; [13]) [µM]	Dmax (BRAF G469A; [14]) [%]	DC50 (BRAF D594G; [15]) [µM]	Dmax (BRAF D594G; [16]) [%]	SMILES
< 0.01	> 70	< 0.01	> 70	0.01 to 0.05	30 to 70	< 0.01	30 to 70	–	–	–	–	–	–	–	–	O=C1CCC(c2ccc(N3CCC(CN4CCN(c5ccc(-n6cc(-c7cc(Cl)cc(NS(=O)(=O)N8CCCC8)c7F)c(-c7ccncc7)n6)cc5)CC4)CC3)cc2F)C(=O)N1 (racemic) [Compound 348, Rac-N-{5-chloro-3-[1-(4-{4-[(1-{4-[(3R)-2,6-dioxopiperidin-3-yl]-3-fluorophenyl}piperidin-4-yl)methyl]piperazin-1-yl}phenyl)-3-(pyridin-4-yl)-1H-pyrazol-4-yl]-2-fluorophenyl}pyrrolidine-1-sulfonamide]
< 0.01	> 70	< 0.01	> 70	< 0.01	30 to 70	< 0.01	30 to 70	–	–	–	–	–	–	–	–	O=C1CC[C@H](c2ccc(N3CCC(CN4CCN(c5ccc(-n6cc(-c7cc(Cl)cc(NS(=O)(=O)N8CC(F)C8)c7F)c(-c7ccncc7)n6)c(F)c5)CC4)CC3)cc2)C(=O)N1 [Compound 338, N-{5-chloro-3-[1-(4-{4-[(1-{4-[(3R)-2,6-dioxopiperidin-3-yl]phenyl}piperidin-4-yl)methyl]piperazin-1-yl}-2-fluorophenyl)-3-(pyridin-4-yl)-1H-pyrazol-4-yl]-2-fluorophenyl}-3-fluoroazetidine-1-sulfonamide]
0.01 to 0.05	> 70	0.01 to 0.05	> 70	< 0.01	30 to 70	0.01 to 0.05	30 to 70	–	–	–	–	–	–	–	–	CCN(C)S(=O)(=O)Nc1cc(F)cc(-c2cn(-c3ccc(N4CCN(CC5CCN(c6ccc([C@H]7CCC(=O)NC7=O)cc6)CC5)CC4)cc3)nc2-c2ccncc2)c1F [Compound 377, (3R)-3-(4-{4-[(4-{4-[4-(3-{[ethyl(methyl)sulfamoyl]amino}-2,5-difluorophenyl)-3-(pyridin-4-yl)-1H-pyrazol-1-yl]phenyl}piperazin-1-yl)methyl]piperidin-1-yl}phenyl)piperidine-2,6-dione]
–	–	–	–	–	–	–	–	< 0.01	> 70	> 0.5	30 to 70	> 0.5	30 to 70	> 0.5	30 to 70	CCCS(=O)(=O)Nc1cccc(-c2nc(C3(C)CCN(C(=O)C4CCN(CC5CCN(c6ccc(C7CCC(=O)NC7=O)cc6)CC5)CC4)CC3)sc2-c2ccnc(N)n2)c1F (racemic) [Compound 227, Rac-N-{3-[5-(2-aminopyrimidin-4-yl)-2-(1-{1-[(1-{4-[(3R)-2,6-dioxopiperidin-3-yl]phenyl}piperidin-4-yl)methyl]piperidine-4-carbonyl}-4-methylpiperidin-4-yl)-1,3-thiazol-4-yl]-2-fluorophenyl}propane-1-sulfonamide]
< 0.01	> 70	> 0.5	30 to 70	> 0.5	< 30	> 0.5	< 30	–	–	–	–	–	–	–	–	O=C1CCC(c2ccc(N3CCC(CN4CCCN(c5ccc(-n6cc(-c7cc(Cl)cc(NS(=O)(=O)N8CCCC8)c7F)c(-c7ccncc7)n6)c(F)c5)CC4)CC3)nc2)C(=O)N1 (racemic) [Compound 345, Rac-N-{5-chloro-3-[1-(4-{4-[(1-{5-[(3R)-2,6-dioxopiperidin-3-yl]pyridin-2-yl}piperidin-4-yl)methyl]-1,4-diazepan-1-yl}-2-fluorophenyl)-3-(pyridin-4-yl)-1H-pyrazol-4-yl]-2-fluorophenyl}pyrrolidine-1-sulfonamide]
–	–	–	–	–	–	–	–	< 0.01	> 70	> 0.5	30 to 70	> 0.5	< 30	> 0.5	30 to 70	CCCS(=O)(=O)Nc1cccc(-c2nc(C(C)(C)C)sc2-c2ccnc(Nc3cnn(C4CCN(CC5CCN(c6ccc7c(=O)n(C8CCC(=O)NC8=O)ccc7c6)CC5)CC4)c3)n2)c1F (racemic) [Compound 80, Rac-N-[3-(2-tert-butyl-5-{2-[(1-f{1-[(1-{2-[(3R)-2,6-dioxopiperidin-3-yl]-1-oxo-1,2-dihydroisoquinolin-6-yl}piperidin-4-yl)methyl]piperidin-4-yl}-1H-pyrazol-4-yl)amino]pyrimidin-4-yl}-1,3-thiazol-4-yl)-2-fluorophenyl]propane-1-sulfonamide]
< 0.01	> 70	< 0.01	> 70	< 0.01	> 70	< 0.01	> 70	–	–	–	–	–	–	–	–	O=C1CC[C@H](c2ccc(N3CCC(CN4CCN(c5ccc(-n6cc(-c7cc(Cl)cc(NS(=O)(=O)N8CC[C@@H](F)C8)c7F)c(-c7ccncc7)n6)cc5)CC4)CC3)nc2)C(=O)N1 [Compound 264, (R)—N-(5-chloro-3-(1-(4-(4-((1-(5-((R)-2,6-dioxopiperidin-3-yl)pyridin-2-yl)piperidin-4-yl)methyl)piperazin-1-yl)phenyl)-3-(pyridin-4-yl)-1H-pyrazol-4-yl)-2-fluorophenyl)-3-fluoropyrrolidine-1-sulfonamide]
–	–	–	–	–	–	–	–	0.01 to 0.05	> 70	> 0.5	< 30	> 0.5	< 30	> 0.5	< 30	CCCS(=O)(=O)Nc1cccc(-c2nc(C(C)(C)C)sc2-c2ccnc(Nc3cccc(C4CCN(CC[C@@H]5CCN(c6ccc(C7CCC(=O)NC7=O)cn6)C5)CC4)c3)n2)c1F (mixture of isomers) [Compound 75, N-{3-[2-tert-butyl-5-(2-{[3-(1-{2-[(3R)-1-{5-[(3RS)-2,6-dioxopiperidin-3-yl]pyridin-2-yl}pyrrolidin-3-yl]ethyl}piperidin-4-yl)phenyl]amino}pyrimidin-4-yl)-1,3-thiazol-4-yl]-2-fluorophenyl}propane-1-sulfonamide]
–	–	–	–	–	–	–	–	< 0.01	> 70	> 0.5	< 30	> 0.5	< 30	> 0.5	< 30	CCCS(=O)(=O)Nc1cccc(-c2nc(C)sc2-c2ccnc(Nc3ccc(C4CCN(C(=O)CC5CCN(c6ccc(NC7CCC(=O)NC7=O)cc6)CC5)CC4)cc3)n2)c1F (racemic) [Compound 44, Rac-N-{3-[5-(2-{[4-(1-{2-[1-(4-{[(3R)-2,6-dioxopiperidin-3-yl]amino}phenyl)piperidin-4-yl]acetyl}piperidin-4-yl)phenyl]amino}pyrimidin-4-yl)-2-methyl-1,3-thiazol-4-yl]-2-fluorophenyl}propane-1-sulfonamide]
–	–	–	–	–	–	–	–	0.01 to 0.05	> 70	> 0.5	30 to 70	> 0.5	< 30	> 0.5	30 to 70	CCCS(=O)(=O)Nc1cccc(-c2nc(-c3ccc(C4CCN(CC5CCN(c6ccc([C@@H]7CCC(=O)NC7=O)cc6)CC5)CC4)cc3)sc2-c2ccnc(N)n2)c1F [Compound 192, N-{3-[5-(2-aminopyrimidin-4-yl)-2-(4-{1-[(1-{4-[(3S)-2,6-dioxopiperidin-3-yl]phenyl}piperidin-4-yl)methyl]piperidin-4-yl}phenyl)-1,3-thiazol-4-yl]-2-fluorophenyl}propane-1-sulfonamide]
< 0.01	> 70	< 0.01	> 70	0.01 to 0.05	> 70	< 0.01	> 70	–	–	–	–	–	–	–	–	O=C1CCC(c2ccc(N3CCC(CN4CCN(c5ccc(-n6cc(-c7cc(F)cc(NS(=O)(=O)N8CCCC8)c7F)c(-c7ccncc7)n6)cc5)CC4)CC3)nc2)C(=O)N1 (racemic) [Compound 267, Rac-(R)—N-(3-(1-(4-(4-((1-(5-(2,6-dioxopiperidin-3-yl)pyridin-2-yl)piperidin-4-yl)methyl)piperazin-1-yl)phenyl)-3-(pyridin-4-yl)-1H-pyrazol-4-yl)-2,5-difluorophenyl)pyrrolidine-1-sulfonamide]
